Measurements as given in patent US20180215787A1, “Chromogenic And Fluorogenic Peptide Substrates For The Detection Of Serine Protease Activity” (RUPRECHT-KARLS-UNIVERSITÄT HEIDELBERG, priority 2015, published 2018).
Values belong to the molecule of their own block, whether it stands above or below them.

Key:
[1] = cited from earlier work
factor Xa [2] = target: T1, factor Xa (Bos taurus, UniProt P00743); assay: Kinetic measurements (Michaelis-Menten) of factor Xa substrates; type: biochemical
Experimental: (§1) Commercial substrate 1a, depicted in FIG. 2, was used as reference in the kinetic measurements. The kinetic values KM, kcat and kcat/KM were established for the fluorogenic compound 1 using Human Thrombin. In order to compare the results of 1 and 1a, the absorption of the released chromophores was measured during the enzymatic reaction (570 nm for resorufin and 380 nm for p-nitroaniline).
(§2) The same parameters were also determined for 1 by measuring the emission of resorufin at 583 nm and similar values to the ones obtained from absorption were found (FIG. 5A).
A similar conjugate, with the same peptide sequence, but having p-nitroanilide as reporter, has a much higher KM (40 μM) and the enzyme has poorer catalytic efficiency for this substrate (2.7×10^6 M^−1 s^−1). Thus, compound 2 of the present invention performs better than the best factor Xa substrate so far reported.
The kinetic parameters were determined as described for the other substrates (cf. Example 4). The results of Michaelis-Menten kinetic is depicted in FIG. 13.

thrombin [3] = target: T2, thrombin (Homo sapiens, UniProt P00734); assay: Kinetic measurements with Human Thrombin; type: biochemical; settings: absorption of released chromophore, 570 nm
Experimental: as §1, §2

BSA = BSA (Bos taurus, UniProt P02769); assay: Fluorescence specificity assay, BSA; type: biochemical; settings: Compound 1 5 μM, BSA 100 pM
Experimental: (§3) The enzymatic reactions were carried out in 50 mM Tris buffer pH 8.3 and 130 mM NaCl.
(§4) the specificity of Compound 1 of the present invention toward thrombin was tested. Compound 1 (5 μM) was incubated in the presence of thrombin (100 pM) and some possible interfering proteases and proteins, like trypsin, factor Xa, myoglobin, cytochrome C and BSA (100 pM). The increase of fluorescence in response to factor Xa, myoglobin, cytochrome C and BSA was negligible (FIG. 6). […] A commercial assay can detect 1 pM thrombin, by fishing it out of plasma samples using microwells coated with DNA-aptamer. The AMC-based substrate is converted by thrombin to fluorescent product after the enrichment step. The fluorescence assay according to the present invention allowed the detection of thrombin at the concentrations as low as 0.5 pM in water solution (FIG. 7), which was achieved without any enrichment step.

thrombin [4] = target: T2, thrombin; assay: Fluorescence assay to evaluate specificity of compound 1 toward thrombin; type: biochemical; settings: Compound 1 5 μM, proteases 100 pM
Experimental: as §3, §4

myoglobin = target: T3, myoglobin (Homo sapiens, UniProt P02144); assay: Fluorescence specificity assay, myoglobin; type: biochemical; settings: Compound 1 5 μM, myoglobin 100 pM
T3 sequence (P02144 1-154): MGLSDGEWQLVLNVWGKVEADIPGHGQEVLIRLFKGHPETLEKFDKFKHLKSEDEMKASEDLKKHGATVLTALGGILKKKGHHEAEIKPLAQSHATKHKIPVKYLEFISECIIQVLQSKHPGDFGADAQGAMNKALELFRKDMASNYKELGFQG
Experimental: as §3, §4

thrombin [5] = target: T2, thrombin; assay: Fluorescence assay for determination of thrombin in water (LOD); type: biochemical; settings: in water solution, without enrichment step
Experimental: The mean change of resorufin fluorescence dF/min is plotted versus the corresponding thrombin concentration (in pM).
as §4

trypsin = assay: Fluorescence specificity assay, trypsin; type: biochemical; settings: Compound 1 5 μM, trypsin 100 pM
Experimental: as §3, §4

factor Xa [6] = target: T1, factor Xa; assay: Fluorescence specificity assay, factor Xa; type: biochemical; settings: Compound 1 5 μM, factor Xa 100 pM
Experimental: as §3, §4

[7] = Stability toward spontaneous hydrolysis in thrombin buffer; type: physicochemical; settings: incubation with thrombin buffer (Tris pH 8.3), 24° C.
Experimental: A. Absorption spectra of resorufin and compound 1 of the present invention; B. Enzymatic hydrolysis of 1 (5 μM) in the presence of thrombin (100 pM) with Tris buffer pH 8.3 (λex=570 nm; λem=583 nm) at 24° C.; inset: full emission spectra recorded after 60 min, with and without enzyme; C.
The photophysical properties of compound 1 of the present invention, as well as its enzymatic conversion to fluorescent product resorufin were investigated. […] It also has a negligible emission, if exited either at its maxima (480 nm) or at resorufin maxima (570 nm).

cytochrome C = cytochrome C (Homo sapiens, UniProt P99999); assay: Fluorescence specificity assay, cytochrome C; type: biochemical; settings: Compound 1 5 μM, cytochrome C 100 pM
Experimental: as §3, §4

[8] = factor Xa substrate, Michaelis-Menten kinetic

T1 sequence (P00743 234-492 limits assumed): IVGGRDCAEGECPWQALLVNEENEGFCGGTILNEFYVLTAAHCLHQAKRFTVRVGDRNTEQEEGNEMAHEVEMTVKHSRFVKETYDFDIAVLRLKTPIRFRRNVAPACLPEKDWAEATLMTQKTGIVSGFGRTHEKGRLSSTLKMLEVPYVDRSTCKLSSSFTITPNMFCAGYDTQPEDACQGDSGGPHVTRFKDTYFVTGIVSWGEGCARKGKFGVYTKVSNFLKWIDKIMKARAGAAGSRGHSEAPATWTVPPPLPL
T1 sequence (P00743 41-180 partner limits assumed): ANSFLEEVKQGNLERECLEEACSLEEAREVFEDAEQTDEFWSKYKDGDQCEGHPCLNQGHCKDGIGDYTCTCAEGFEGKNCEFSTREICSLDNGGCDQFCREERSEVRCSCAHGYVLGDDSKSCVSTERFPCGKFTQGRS
cytochrome C, sequence (P99999 whole entry, species assumed): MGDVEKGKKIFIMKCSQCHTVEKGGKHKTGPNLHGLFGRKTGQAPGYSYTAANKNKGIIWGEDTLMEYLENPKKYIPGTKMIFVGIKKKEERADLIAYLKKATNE
BSA, sequence (P02769 25-607): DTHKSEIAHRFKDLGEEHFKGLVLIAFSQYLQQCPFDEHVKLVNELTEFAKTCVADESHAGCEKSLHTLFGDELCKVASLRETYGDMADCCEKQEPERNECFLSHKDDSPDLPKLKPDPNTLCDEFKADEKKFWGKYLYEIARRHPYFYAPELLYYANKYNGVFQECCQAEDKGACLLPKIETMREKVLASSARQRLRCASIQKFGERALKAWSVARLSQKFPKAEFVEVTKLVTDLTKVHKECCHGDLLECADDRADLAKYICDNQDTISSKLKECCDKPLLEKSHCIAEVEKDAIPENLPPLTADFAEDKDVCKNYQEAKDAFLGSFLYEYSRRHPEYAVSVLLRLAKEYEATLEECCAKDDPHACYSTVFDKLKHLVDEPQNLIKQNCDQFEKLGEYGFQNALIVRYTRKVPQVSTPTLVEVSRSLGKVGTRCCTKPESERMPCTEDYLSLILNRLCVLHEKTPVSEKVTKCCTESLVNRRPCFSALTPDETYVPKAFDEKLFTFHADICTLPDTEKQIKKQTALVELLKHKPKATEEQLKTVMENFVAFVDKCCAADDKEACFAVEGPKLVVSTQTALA

Molecule: O=c1ccc2nc3ccc(O)cc3oc-2c1 [resorufin, 7-Hydroxy-3H-phenoxazin-3-one]
pKa [1]: ~6.0

KM value (in words) (factor Xa [2]; FIG. 5B): very low KM value
catalytic efficiency (in words) (factor Xa [2]; FIG. 5B): excellent catalytic efficiency
turnover number kcat (in words) (factor Xa [2]; FIG. 5B): relatively good turnover number
Molecule: BzIs-D-Arg-Gly-Arg-PABA-Res [Compound 2]

Km (factor Xa [2]; [8]): 5.5 µM
kcat (factor Xa [2]; [8]): 4.9 s⁻¹
Molecule: Cbz-D-Arg-Gly-Arg-PABA-Res [Compound 2a]

Molecule: D-Phe-Pro-Arg-PABA-Res [Compound 1]
thrombin turnover compared with commercial substrate 1a (thrombin [3]): did not suffer at all
increase of fluorescence in response to BSA (BSA): negligible
specificity for thrombin compared to factor Xa (thrombin [4]): 400 times
selectivity for thrombin over trypsin (thrombin [4]; 50 mM Tris pH 8.3, 130 mM NaCl): 7.5 fold
increase of fluorescence in response to myoglobin (myoglobin): negligible
lowest detectable thrombin concentration (thrombin [5]): 0.5 pM
hydrolysis by trypsin (rate compared to thrombin) (trypsin): slower rate compared to thrombin
increase of fluorescence in response to factor Xa (factor Xa [6]): negligible
spontaneous hydrolysis / chemical stability [7]: no spontaneous hydrolysis
increase of fluorescence in response to cytochrome C (cytochrome C): negligible
